{"source": "ChEMBL document CHEMBL5120923", "about": "“Tamarixetin Attenuated the Virulence of Staphylococcus aureus by Directly Targeting Caseinolytic Protease P” (J Nat Prod, 2022)", "key": {"[1]": {"system": "Staphylococcus aureus", "experiment": "Binding affinity to methicillin-resistant Staphylococcus aureus USA300 ClpP assessed as dissociation rate constant by surface plasmon resonance assay"}, "[2]": {"system": "Staphylococcus aureus", "experiment": "Antibacterial activity against methicillin-resistant Staphylococcus aureus USA300 infected in C57BL/6J mouse pneumonia model assessed as reduction in IFN-gamma level in lung at 100 mg/Kg, sc administered every 12 hrs measured after 48 hrs by ELISA", "type": "functional, organism-based"}, "[3]": {"system": "Staphylococcus aureus", "experiment": "Antibacterial activity against methicillin-resistant Staphylococcus aureus USA300 incubated for 24 hrs by microdilution broth assay", "type": "functional"}, "[4]": {"system": "Staphylococcus aureus", "experiment": "Synergistic […] activity against Cmethicillin-resistant Staphylococcus aureus USA300 assessed as fractional inhibitory concentration index at 64 ug/ml in presence of cefotaxime by checker board method", "type": "functional", "settings": "dose 64 µg/ml"}, "[5]": {"system": "Staphylococcus aureus", "experiment": "Inhibition of pvl gene transcription level in methicillin-resistant Staphylococcus aureus USA300 at 64 ug/ml by qPCR analysis", "type": "functional", "settings": "dose 64.0 µg/ml"}, "[6]": {"system": "Staphylococcus aureus", "experiment": "Inhibition of PSM-alpha gene transcription level in methicillin-resistant Staphylococcus aureus USA300 at 64 ug/ml by qPCR analysis", "type": "functional", "settings": "dose 64.0 µg/ml"}, "[7]": {"experiment": "Inhibition of methicillin-resistant Staphylococcus aureus USA300 ClpP using Suc-LY-AMC as fluorescent substrate preincubated for 1 hr followed by substrate addition and measured after 1 hr by FRET assay"}, "[8]": {"experiment": "Inhibition of agrA gene transcription level in methicillin-resistant Staphylococcus aureus USA300 at 64 ug/ml by qPCR analysis", "type": "functional"}, "[9]": {"system": "HEK-293T", "experiment": "Cytotoxicity against human HEK-293T cells at 64 ug/ml by MTT assay", "type": "toxicity, cell-based", "settings": "dose 64 µg/ml"}, "[10]": {"system": "Staphylococcus aureus", "experiment": "Antibacterial activity against methicillin-resistant Staphylococcus aureus USA300 harboring ClpP delta mutant assessed as inhibition of bacteria-mediated hemolytic activity on rabbit erythrocytes at 128 ug/ml incubated for 30 mins by hemolysis assay", "type": "functional", "settings": "USA300, 0.5 h"}, "[11]": {"system": "Staphylococcus aureus", "experiment": "Binding affinity to methicillin-resistant Staphylococcus aureus USA300 ClpP assessed as association rate constant by surface plasmon resonance assay"}, "[12]": {"system": "Staphylococcus aureus", "experiment": "(§1) Antibacterial activity against methicillin-resistant Staphylococcus aureus USA300 harboring delta ClpP mutant infected in C57BL/6J mouse pneumonia model assessed as reduction in infiltration of inflammatory cells in alveoli at 100 mg/Kg, sc administered every 12 hrs measured after 48 hrs by hematoxylin and eosin staining based histopathological analysis", "type": "functional, organism-based"}, "[13]": {"system": "Staphylococcus aureus", "experiment": "Inhibition of methicillin-resistant Staphylococcus aureus USA300 ClpP assessed as upregulation of urease production at 64 ug/ml incubated for 4 hr by spectrophotometry", "settings": "dose 64.0 µg/ml"}, "[14]": {"system": "Staphylococcus aureus", "experiment": "Antibacterial activity against methicillin-resistant Staphylococcus aureus USA300 infected in C57BL/6J mouse pneumonia model assessed as reduction in TNF-alpha level in lung at 100 mg/Kg, sc administered every 12 hrs measured after 48 hrs by ELISA", "type": "functional, organism-based"}, "[15]": {"system": "Staphylococcus aureus", "experiment": "Inhibition of PVL protein expression in methicillin-resistant Staphylococcus aureus Newman incubated for overnight by western blot analysis", "type": "functional", "settings": "DDE = dose-dependent effect"}, "[16]": {"system": "Staphylococcus aureus", "experiment": "Synergistic antibacterial activity against methicillin-resistant Staphylococcus aureus USA300 assessed as cefotaxime MIC by checker board method", "type": "functional"}, "[17]": {"system": "Staphylococcus aureus", "experiment": "(§2) Synergistic antibacterial activity against methicillin-resistant Staphylococcus aureus USA300 infected in C57BL/6J mouse pneumonia model assessed as reduction in bacterial load in lung at 100 mg/Kg, sc administered every 12 hrs measured after 48 hrs in presence of cefotaxime (reference value: 7.72 +/- 0.50 log10CFU/g)", "type": "functional"}, "[18]": {"experiment": "Binding affinity to methicillin-resistant Staphylococcus aureus USA300 ClpP assessed as dissociation constant by surface plasmon resonance assay"}, "[19]": {"system": "Staphylococcus aureus", "experiment": "Synergistic antibacterial activity against methicillin-resistant Staphylococcus aureus USA300 infected in C57BL/6J mouse pneumonia model assessed as lethality at 50 mg/Kg, sc administered every 12 hrs measured after 72 hrs in presence of cefotaxime (Rvb =40%)", "type": "functional"}, "[20]": {"system": "Staphylococcus aureus", "experiment": "Antibacterial activity against methicillin-resistant Staphylococcus aureus USA300 infected in C57BL/6J mouse pneumonia model assessed as reduction in IL-6 level in lung at 100 mg/Kg, sc administered every 12 hrs measured after 48 hrs by ELISA", "type": "functional, organism-based"}, "[21]": {"system": "Staphylococcus aureus", "experiment": "Inhibition of agr gene transcription level in methicillin-resistant Staphylococcus aureus USA300 at 64 ug/ml by qPCR analysis", "type": "functional", "settings": "dose 64.0 µg/ml"}, "[22]": {"system": "A549", "experiment": "Cytotoxicity against human A549 cells at 64 ug/ml by MTT assay", "type": "toxicity, cell-based", "settings": "dose 64 µg/ml"}, "[23]": {"system": "Staphylococcus aureus", "experiment": "Inhibition of methicillin-resistant Staphylococcus aureus USA300 ClpP using Suc-LY-AMC as fluorescent substrate at 64 ug/ml preincubated for 1 hr followed by substrate addition and measured after 1 hr by FRET assay relative to control", "settings": "dose 64.0 µg/ml, time 2.0 hrs"}, "[24]": {"system": "Staphylococcus aureus", "experiment": "Binding affinity to methicillin-resistant Staphylococcus aureus USA300 ClpP assessed as change in thermal stability by measuring protein deposition at 64 ug/ml by measured after 1 hr by cellular thermal shift assay (reference value: 65 degC)", "settings": "dose 64.0 µg/ml"}, "[25]": {"system": "Staphylococcus aureus", "experiment": "Inhibition of RNAIII gene transcription level in methicillin-resistant Staphylococcus aureus USA300 at 64 ug/ml by qPCR analysis", "type": "functional", "settings": "dose 64.0 µg/ml"}, "[26]": {"system": "Staphylococcus aureus", "experiment": "Inhibition of hla gene transcription level in methicillin-resistant Staphylococcus aureus USA300 at 64 ug/ml by qPCR analysis", "type": "functional", "settings": "dose 64.0 µg/ml"}, "[27]": {"system": "Staphylococcus aureus", "experiment": "as §2, with “Antibacterial” for “Synergistic antibacterial”, “10.04+/- 0.56” for “7.72 +/- 0.50”", "type": "functional"}, "[28]": {"system": "Staphylococcus aureus", "experiment": "Inhibition of spa gene transcription level in methicillin-resistant Staphylococcus aureus USA300 at 64 ug/ml by qPCR analysis", "type": "functional", "settings": "dose 64.0 µg/ml"}, "[29]": {"system": "Staphylococcus aureus", "experiment": "Inhibition of PVL protein expression in methicillin-resistant Staphylococcus aureus USA300 incubated for overnight by western blot analysis", "type": "functional", "settings": "DDE = dose-dependent effect"}, "[30]": {"system": "HepG2", "experiment": "Cytotoxicity against human HepG2 cells at 64 ug/ml by MTT assay", "type": "toxicity, cell-based", "settings": "dose 64 µg/ml"}, "[31]": {"system": "Staphylococcus aureus", "experiment": "as §1, with “USA300” for “USA300 harboring delta ClpP mutant”", "type": "functional, organism-based"}, "[32]": {"system": "Staphylococcus aureus", "experiment": "Binding affinity to methicillin-resistant Staphylococcus aureus USA300 ClpP assessed as decrease in thermal stability of the protein at 16 to 64 ug/ml by SYPRO orange thermal shift assay", "settings": "dose 16-64 µg/ml"}, "[33]": {"system": "Staphylococcus aureus", "experiment": "Antibacterial activity against methicillin-resistant Staphylococcus aureus USA300 harboring delta ClpP mutant infected in C57BL/6J mouse pneumonia model assessed as reduction in mortality rate at 50 mg/Kg, sc administered every 12 hrs measured after 72 hrs (Rvb =80%)", "type": "functional", "parameters": "scale not given: the % may be the effect or the level left"}, "[34]": {"system": "Staphylococcus aureus", "experiment": "Antibacterial activity against methicillin-resistant Staphylococcus aureus USA300 assessed as inhibition of bacteria-mediated hemolytic activity on rabbit erythrocytes at 128 ug/ml incubated for 30 mins by hemolysis assay", "type": "functional", "settings": "USA300, 0.5 h"}, "[35]": {"system": "Staphylococcus aureus", "experiment": "Synergistic antibacterial activity against methicillin-resistant Staphylococcus aureus USA300 infected in C57BL/6J mouse pneumonia model assessed as reduction in infiltration of inflammatory cells in alveoli at 100 mg/Kg, sc administered every 12 hrs measured after 48 hrs in presence of cefotaxime by hematoxylin and eosin staining based histopathological analysis", "type": "functional, organism-based"}}, "note": "Activity calls are given as the source filed them. No cut-off for these calls is given here.", "data": [{"compound": "COc1ccc(-c2oc3cc(O)cc(O)c3c(=O)c2O)cc1O", "note": "[TAMARIXETIN]", "values": [{"measurement": "Kdiss", "setting": "[1]", "result": "4.26 10^-3/s"}, {"measurement": "Activity", "setting": "[2]", "result": "Active"}, {"measurement": "MIC", "setting": "[3]", "result": 512, "unit": "µg/mL"}, {"measurement": "fractional inhibitory concentration index (FICI)", "setting": "[4]", "result": 0.375}, {"measurement": "inhibition", "setting": "[5]", "result": "Active"}, {"measurement": "inhibition", "setting": "[6]", "result": "Active"}, {"measurement": "IC50", "setting": "[7]", "result": 49.7, "unit": "µM"}, {"measurement": "inhibition at 64 µg/mL", "setting": "[8]", "result": 83.9, "unit": "%"}, {"measurement": "Activity", "setting": "[9]", "result": "Non-Toxic"}, {"measurement": "inhibition at 128 µg/mL", "setting": "[10]", "result": 85.8, "unit": "%"}, {"measurement": "Ka", "setting": "[11]", "result": "1.69 10^3/M/s"}, {"measurement": "Activity", "setting": "[12]", "result": "Active"}, {"measurement": "inhibition", "setting": "[13]", "result": "Active"}, {"measurement": "Activity", "setting": "[14]", "result": "Active"}, {"measurement": "inhibition", "setting": "[15]", "result": "Dde"}, {"measurement": "MIC", "setting": "[16]", "result": 16, "unit": "µg/mL"}, {"measurement": "Activity", "setting": "[17]", "result": 7.03, "unit": "log10CFU/g"}, {"measurement": "Kd", "setting": "[18]", "result": 2.52, "unit": "µM"}, {"measurement": "Activity", "setting": "[19]", "result": 20, "unit": "%"}, {"measurement": "Activity", "setting": "[20]", "result": "Active"}, {"measurement": "inhibition", "setting": "[21]", "result": "Active"}, {"measurement": "Activity", "setting": "[22]", "result": "Non-Toxic"}, {"measurement": "inhibition", "setting": "[23]", "result": 2.5, "unit": "%"}, {"measurement": "Activity", "setting": "[24]", "result": "Active"}, {"measurement": "inhibition", "setting": "[25]", "result": "Active"}, {"measurement": "inhibition", "setting": "[26]", "result": "Active"}, {"measurement": "Activity", "setting": "[27]", "result": 7.03, "unit": "log10CFU/g"}, {"measurement": "inhibition", "setting": "[28]", "result": "Active"}, {"measurement": "inhibition", "setting": "[29]", "result": "Dde"}, {"measurement": "Activity", "setting": "[30]", "result": "Non-Toxic"}, {"measurement": "Activity", "setting": "[31]", "result": "Active"}, {"measurement": "ΔTm", "setting": "[32]", "result": "> 2", "unit": "°C"}, {"measurement": "Activity", "setting": "[33]", "result": 70, "unit": "%"}, {"measurement": "inhibition at 128 µg/mL", "setting": "[34]", "result": "> 55", "unit": "%"}, {"measurement": "Activity", "setting": "[35]", "result": "Active"}]}]}
